Data as given in publication PMC11530689, “Anti colorectal cancer activity and in silico studies of novel pyridine nortopsentin analog as cyclin dependent kinase 6 inhibitor” (Scientific Reports, 2024).

Assays:
HCT116 cells = assay: Cell cycle analysis by FACS (PI staining); format: cell-based, human; details: HCT116, treated with IC50 for 48 h, control 41.93%
Description: Briefly, HCT116 cells were treated with 4i compound’s IC50 for 48 h. Then, the cells were fixed in cold 70% ethanol solution for 2 h at 4 °C and centrifuged at 800 g for 5 min. The ethanol solution was removed. PBS was used to wash the cells twice. DNA was stained with 1 µg/mL propidium iodide (PI) solution (Sigma-Aldrich, St. Louis, MO, USA), supplemented with 100 µg/mL RNase A (Roche, Basel, Switzerland) for 30 min in the dark at 37 °C. After centrifugation, the cells were suspended in phosphate buffer solution and the fluorescence was measured using flow cytometry by FACSCalibur (BD Biosciences, Mountain View, CA). The data were analyzed using the CellQuest software (BD Biosciences).

CDK4 gene expression = assay: Gene expression by quantitative real-time PCR, CDK4; format: cell-based, human; details: IC50 dose, 48 h, normalized to GAPDH, vs control
Description: The cells were seeded in a six-well plate at a concentration of 3 × 10^5 cells/well. After a 24 h incubation, the IC50 dose of active compound 4i was applied to each well for 48 h. The cells were collected and centrifuged at 2500 rpm for 15 min at 4 °C. The total RNA isolation kit (RNeasy extraction kit—QIAGEN) was used to isolate RNA according to the manufacturer’s instructions.
Gene expression analysis by quantitative real-time PCR. The levels of gene expression of CDK2, CDK4 and CDK6 were determined using iScript One-Step RT-PCR kit with SYBR Green (BIORAD) according to the manufacturer protocol. The sequences of the used primers are illustrated in Table 4. The genes expression was normalized to GAPDH as the housekeeping gene. The protocol used for cDNA synthesis was: 10 min at 50 °C, iScript Reverse transcriptase inactivation: 5 min at 95 °C and PCR cycling and detection (30 to 45 cycles): 10 s at 95 °C and 30 s at 55 °C to 60 °C.

[1] = tested on: 60 different cancer cell lines; assay: NCI screen against 60 cancer cell lines, overall; format: cell-based; details: single concentration 10^−5 M
Description: The cytotoxic activity of nortopsintin analogs (4a-4j) was determined by the national cancer institute (NCI, Bethesda, Maryland, USA) against 60 different cancer cell lines at a single concentration of (10^-5 M). For the determination of IC50 value, we used MTT assay kit (Sigma) according to the manufacturer's protocol. HCT-116 cells were seeded into a 96-well plate at a concentration of 20,000 cells/well. After 24 h, the media was aspirated and replaced with serum-free media containing serial dilutions of the 4i compound. […] The percentage of cytotoxicity was calculated using the following equation: % Cytotoxicity = [1 - ([…])] × 100.

ACHN = assay: NCI 60 cell line screen; format: cell-based; details: Renal Cancer, single concentration 10^−5 M
In short: (§1)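 Cytotoxic activity was assessed by the NCI across 60 cancer cell lines, with each compound tested once at 10^-5 M.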

CCRF-CEM = assay: NCI 60 cell line screen; format: cell-based; details: Leukemia, single concentration 10^−5 M
In short: as §1

DU-145 = assay: NCI 60 cell line screen; format: cell-based; details: DU-145, Prostate Cancer; single concentration 10^−5 M
In short: as §1

HL-60 (TB) = assay: NCI 60 cell line screen; format: cell-based; details: Leukemia, single concentration 10^−5 M
In short: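 Cytotoxicity was determined at 10^-5 M in the NCI sixty-cell-line program; each line received that single concentration.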

HOP-62 = assay: NCI 60 cell line screen; format: cell-based; details: HOP-62, Non-Small Cell Lung Cancer; single concentration 10^−5 M
In short: as §1

HOP-92 = assay: NCI 60 cell line screen; format: cell-based; details: HOP-92, Non-Small Cell Lung Cancer; single concentration 10^−5 M
In short: as §1

HS 578T = assay: NCI 60 cell line screen; format: cell-based; details: Breast Cancer, single concentration 10^−5 M
In short: as §1

K-562 = assay: NCI 60 cell line screen; format: cell-based; details: K-562, Leukemia; single concentration 10^−5 M
In short: as §1

LOX IMVI = assay: NCI 60 cell line screen; format: cell-based; details: Melanoma, single concentration 10^−5 M
In short: as §1

MALME-3M = assay: NCI 60 cell line screen; format: cell-based; details: Melanoma, single concentration 10^−5 M
In short: as §1

MOLT-4 = assay: NCI 60 cell line screen; format: cell-based; details: MOLT-4, Leukemia; single concentration 10^−5 M
In short: as §1

NCI-H322M = assay: NCI 60 cell line screen; format: cell-based; details: Non-Small Cell Lung Cancer, single concentration 10^−5 M
In short: as §1

NCI-H460 = assay: NCI 60 cell line screen; format: cell-based; details: NCI-H460, Non-Small Cell Lung Cancer; single concentration 10^−5 M
In short: as §1

NCI-H522 = assay: NCI 60 cell line screen; format: cell-based; details: NCI-H522, Non-Small Cell Lung Cancer; single concentration 10^−5 M
In short: as §1

OVCAR-5 = assay: NCI 60 cell line screen; format: cell-based; details: OVCAR-5, Ovarian Cancer; single concentration 10^−5 M
In short: as §1

SF-268 = assay: NCI 60 cell line screen; format: cell-based; details: SF-268, CNS Cancer; single concentration 10^−5 M
In short: as §1

SF-295 = assay: NCI 60 cell line screen; format: cell-based; details: SF-295, CNS Cancer; single concentration 10^−5 M
In short: as §1

SK-MEL-28 = assay: NCI 60 cell line screen; format: cell-based; details: SK-MEL-28, Melanoma; single concentration 10^−5 M
In short: as §1

SK-MEL-2 = assay: NCI 60 cell line screen; format: cell-based; details: SK-MEL-2, Melanoma; single concentration 10^−5 M
In short: as §1

SN12C = assay: NCI 60 cell line screen; format: cell-based; details: Renal Cancer, single concentration 10^−5 M
In short: as §1

SNB-19 = assay: NCI 60 cell line screen; format: cell-based; details: SNB-19, CNS Cancer; single concentration 10^−5 M
In short: as §1

SR = assay: NCI 60 cell line screen; format: cell-based; details: Leukemia, single concentration 10^−5 M
In short: as §1

SW-620 = assay: NCI 60 cell line screen; format: cell-based; details: SW-620, Colon Cancer; single concentration 10^−5 M
In short: as §1

T-47D = assay: NCI 60 cell line screen; format: cell-based; details: Breast Cancer, single concentration 10^−5 M
In short: as §1

Q: What does the source list for `CN(C)c1ccc(-c2cc(-c3c[nH]c4ccccc34)nc(-c3c[nH]c4ccccc34)c2C#N)cc1` [4i]?
A: cells at G1 phase (%DIP G1) (HCT116 cells): 47.62%; Relative gene expression of CDK4 (CDK4 gene expression): significantly suppress the expression; cytotoxic / antiproliferative activity over the panel [1]: highest level of cytotoxic activity; Growth % (ACHN): 98.60%; Growth % (CCRF-CEM): 78.55%; Growth % (DU-145): 99.65%; Growth % (HL-60 (TB)): 85.35%; Growth % (HOP-62): 82.30%; Growth % (HOP-92): 104.62%; Growth % (HS 578T): 104.13%; Growth % (K-562): 39.74%; Growth % (LOX IMVI): 70.02%; Growth % (MALME-3M): 97.41%; Growth % (MOLT-4): 98.39%; Growth % (NCI-H322M): 92.92%; Growth % (NCI-H460): 60.31%; Growth % (NCI-H522): 93.15%; Growth % (OVCAR-5): 102.79%; Growth % (SF-268): 96.47%; Growth % (SF-295): 79.83%; Growth % (SK-MEL-28): 101.89%; Growth % (SK-MEL-2): 102.08%; Growth % (SN12C): 92.07%; Growth % (SNB-19): 79.65%; Growth % (SR): 32.38%; Growth % (SW-620): 46.63%; Growth % (T-47D): 95.86%
